Like-named read-outs stand apart in the source and are kept apart here. Bridge positions count the residues as written; N and C are the ends. Square brackets hold non-standard residues; d marks the D form. Peptide text beside a SMILES is read from it. d2Nal = N[C@H](Cc1ccc2ccccc2c1)C(=O)O; Bta = N[C@@H](Cc1csc2ccccc12)C(=O)O; Nle = CCCC[C@H](N)C(=O)O; Ava = NCCCCC(=O)O; βAla = NCCC(=O)O
Columns and labels:
hMC1-R = biological target: T1, hMC1-R (Homo sapiens, UniProt Q01726); test: cyclic AMP bioassay (ECL) in CHO-K1 cells; type: cell-based
T1 construct: expressed in transfected cells; host or cells: CHO-K1

hMC3-R = biological target: T2, hMC3-R (Homo sapiens, UniProt P41968); test: cyclic AMP bioassay (ECL) in CHO-K1 cells; type: cell-based
T2 construct: expressed in transfected cells; host or cells: CHO-K1

hMC5-R [1] = biological target: T3, hMC5-R (Homo sapiens, UniProt P33032); test: Radioligand binding assay, [125I]-NDP-α-MSH competition, CHO-K1 membranes
T3 construct: expressed in transfected cells; host or cells: CHO-K1
Protocol: Cellular membranes used for the in vitro receptor binding assays were obtained from transgenic CHO-K1 cells stably expressing hMC-R receptor subtypes 1, 3, 4 or 5. […] The pellets were resuspended in the same buffer and centrifuged at 50,000 g for 10 minutes at approximately 4° C. The washed pellets containing the cellular membranes were stored at approximately −80° C.
Cell membranes (1-10 μg protein/well) prepared as described above were incubated in 50 mM Tris-HCl at pH 7.4 containing 0.2% bovine serum albumin (BSA), 5 mM MgCl2, 1 mM CaCl2 and 0.1 mg/mL bacitracin, with increasing concentrations of the test compound and 0.1-0.3 nM [^25I]-NDP-α-MSH for approximately 90-120 minutes at approximately 37° C. […] Filters were washed three times with 50 mM Tris-HCl at pH 7.4 at a temperature of approximately 0-4° C. and then assayed for radioactivity using a Packard Topcount® scintillation counter. Binding data were analyzed by computer-assisted non-linear regression analysis (XL fit; IDBS).

hMC4-R = biological target: T4, hMC4-R (Homo sapiens, UniProt P32245); test: cyclic AMP bioassay (ECL) in CHO-K1 cells; type: cell-based
T4 construct: expressed in transfected cells; host or cells: CHO-K1

hMC5-R [2] = biological target: T3, hMC5-R; test: cyclic AMP bioassay (ECL) in CHO-K1 cells; type: cell-based
[3] = Table 9A/9B, read-out: EC50 hMC1-R
[4] = Table 9A/9B, read-out: EC50 hMC3-R
[5] = Table 9A/9B, read-out: EC50 hMC4-R
[6] = Table 9A/9B, read-out: EC50 hMC5-R

T1 sequence (Q01726 whole entry): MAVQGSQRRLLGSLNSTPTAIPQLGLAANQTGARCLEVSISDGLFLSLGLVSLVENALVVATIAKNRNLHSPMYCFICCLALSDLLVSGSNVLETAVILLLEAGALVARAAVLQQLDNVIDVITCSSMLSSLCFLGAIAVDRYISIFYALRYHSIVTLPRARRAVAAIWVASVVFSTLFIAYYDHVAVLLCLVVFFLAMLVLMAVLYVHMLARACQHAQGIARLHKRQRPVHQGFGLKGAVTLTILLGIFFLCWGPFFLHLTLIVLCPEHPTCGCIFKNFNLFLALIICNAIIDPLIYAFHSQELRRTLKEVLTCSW
T4 sequence (P32245 whole entry): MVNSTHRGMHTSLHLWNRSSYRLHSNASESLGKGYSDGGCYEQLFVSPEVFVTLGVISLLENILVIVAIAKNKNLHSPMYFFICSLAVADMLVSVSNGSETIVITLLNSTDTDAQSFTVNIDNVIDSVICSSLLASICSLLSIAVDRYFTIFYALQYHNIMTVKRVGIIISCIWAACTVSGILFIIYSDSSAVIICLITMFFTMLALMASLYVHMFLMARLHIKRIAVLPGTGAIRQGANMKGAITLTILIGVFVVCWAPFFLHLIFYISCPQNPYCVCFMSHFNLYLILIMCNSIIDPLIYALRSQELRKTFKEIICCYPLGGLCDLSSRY
T3 sequence (P33032 whole entry): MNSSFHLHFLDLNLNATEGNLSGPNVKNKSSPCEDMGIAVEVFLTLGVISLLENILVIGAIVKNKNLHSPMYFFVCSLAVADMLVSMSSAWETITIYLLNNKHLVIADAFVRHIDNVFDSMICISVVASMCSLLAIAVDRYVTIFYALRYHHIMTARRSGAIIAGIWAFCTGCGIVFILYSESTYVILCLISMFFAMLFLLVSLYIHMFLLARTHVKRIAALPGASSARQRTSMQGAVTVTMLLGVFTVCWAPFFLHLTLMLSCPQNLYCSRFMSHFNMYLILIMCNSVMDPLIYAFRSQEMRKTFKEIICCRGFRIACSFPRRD
T2 sequence (P41968 whole entry): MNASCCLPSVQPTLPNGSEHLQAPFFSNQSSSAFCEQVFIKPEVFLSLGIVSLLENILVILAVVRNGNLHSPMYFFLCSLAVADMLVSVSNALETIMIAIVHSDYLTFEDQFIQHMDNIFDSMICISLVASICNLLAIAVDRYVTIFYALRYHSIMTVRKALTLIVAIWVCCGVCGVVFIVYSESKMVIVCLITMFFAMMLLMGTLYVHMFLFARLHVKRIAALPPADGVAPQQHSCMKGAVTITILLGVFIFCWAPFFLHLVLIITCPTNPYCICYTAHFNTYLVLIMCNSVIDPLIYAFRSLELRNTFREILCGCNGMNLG

| Structure (SMILES) | EC50 (hMC1-R) [nM] | Kb (hMC3-R) [nM] | Kb (hMC4-R) [nM] | EC50 (hMC5-R [2]) [nM] | other results |
| --- | --- | --- | --- | --- | --- |
| CC(=O)N[C@H]1CSSC[C@@H](C(=O)N2CCC[C@H]2C(=O)N2CCC[C@H]2C(=O)N[C@@H](CCCNC(=N)N)C(=O)N[C@@H](CC(=O)O)C(=O)NCCC(=O)N[C@@H](CCCNC(=N)N)C(=O)N[C@@H](CCCNC(=N)N)C(=O)N[C@@H](CCCNC(=N)N)C(=O)N[C@@H](CCCNC(=N)N)C(=O)N[C@@H](CCCNC(=N)N)C(=O)N[C@@H](CCC(N)=O)C(=O)N[C@@H](CCCNC(=N)N)C(=O)N[C@@H](CCCNC(=N)N)C(=O)N[C@@H](CCCNC(=N)N)C(N)=O)NC(=O)[C@H](C)NC(=O)[C@H](Cc2csc3ccccc23)NC(=O)[C@H](CCCNC(=N)N)NC(=O)[C@@H](Cc2ccc3ccccc3c2)NC(=O)[C@H](Cc2c[nH]cn2)NC(=O)[C@H](CCC(=O)O)NC1=O | 38.3 | 20.2 | 21.2 | > 10000 | Ki (hMC5-R [1]; Ki hMC5-R, Table 6): 48.3 nM |
| C[C@H]1NC(=O)[C@@H](NC(=O)CN2C(=O)CNC2=O)CSSC[C@@H](C(N)=O)NC(=O)[C@H](Cc2c[nH]c3ccccc23)NC(=O)[C@H](CCCNC(=N)N)NC(=O)[C@@H](Cc2ccccc2)NC(=O)[C@H](Cc2cnc[nH]2)NC1=O [Hydantoin(C(O)-(Gly-Gly))-c(Cys-D-Ala-His-D-Phe-Arg-Trp-Cys)-NH2] | 14.2 |  |  | 201 | EC50 (hMC3-R): 2.46 nM; Ki (hMC5-R [1]; Ki hMC5, Table 7): 50 nM; EC50 (hMC4-R): 0.336 nM |
| CC(=O)N[C@H]1CSSC[C@@H](C(=O)N2CCC[C@H]2C(=O)N2CCC[C@H]2C(=O)N[C@@H](CCCCN)C(=O)N[C@@H](CC(=O)O)C(=O)NCCC(=O)N[C@@H](CCCNC(=N)N)C(=O)N[C@@H](CCCCN)C(=O)N[C@@H](CCCNC(=N)N)C(=O)N[C@@H](CCCNC(=N)N)C(=O)N[C@@H](CCCNC(=N)N)C(=O)N[C@@H](CCC(N)=O)C(=O)N[C@@H](CCCNC(=N)N)C(=O)N[C@@H](CCCNC(=N)N)C(=O)N[C@@H](CCCNC(=N)N)C(N)=O)NC(=O)[C@H](C)NC(=O)[C@H](Cc2csc3ccccc23)NC(=O)[C@H](CCCNC(=N)N)NC(=O)[C@@H](Cc2ccc3ccccc3c2)NC(=O)[C@H](Cc2c[nH]cn2)NC(=O)[C@H](CCC(=O)O)NC1=O | 19.1 | 106 | 4.59 | 100 | Ki (hMC5-R [1]; Ki hMC5-R, Table 6): 15.5 nM |
| CC(=O)N[C@H](CCCNC(=N)N)C(=O)N[C@H]1CSSC[C@@H](C(N)=O)NC(=O)[C@H](Cc2c[nH]c3ccccc23)NC(=O)[C@H](CCCNC(=N)N)NC(=O)[C@@H](Cc2ccccc2)NC(=O)[C@H](Cc2c[nH]cn2)NC(=O)[C@@H](C)NC1=O [Ac-D-Arg-c(Cys-D-Ala-His-D-Phe-Arg-Trp-Cys)-NH2] |  |  |  | 1020 | Ki (hMC5-R [1]; Ki hMC5-R, Table 5): 352 nM |
| CC(=O)N[C@H]1CSSC[C@@H](C(=O)N2CCC[C@H]2C(=O)N2CCC[C@H]2C(=O)N[C@@H](CCCCN)C(=O)N[C@@H](CC(=O)O)C(=O)NCCC(=O)N[C@@H](Cc2ccc(O)cc2)C(=O)NC(C)(C)C(=O)N[C@@H](CCCNC(=N)N)C(=O)N[C@@H](CCCCN)C(=O)N[C@@H](CCCCN)C(=O)N[C@@H](CCCNC(=N)N)C(=O)N[C@@H](CCCNC(=N)N)C(=O)N[C@@H](CCC(N)=O)C(=O)N[C@@H](CCCNC(=N)N)C(=O)N[C@@H](CCCNC(=N)N)C(=O)N[C@@H](CCCNC(=N)N)C(N)=O)NC(=O)[C@H](C)NC(=O)[C@H](Cc2csc3ccccc23)NC(=O)[C@H](CCCNC(=N)N)NC(=O)[C@@H](Cc2ccc3ccccc3c2)NC(=O)[C@H](Cc2c[nH]cn2)NC(=O)[C@H](CCC(=O)O)NC1=O |  |  |  |  | EC50 (hMC1-R; cAMP, CHO-K1 cells expressing hMC1-R, read-out: EC50 hMC1-R): 67.1 nM; Kb (hMC3-R; antagonist potency by Schild analysis, cAMP, CHO-K1 cells expressing hMC3-R, read-out: Kb hMC3-R): 439 nM; Kb (hMC4-R; antagonist potency by Schild analysis, cAMP, CHO-K1 cells expressing hMC4-R, read-out: Kb hMC4-R): 46.5 nM; EC50 (hMC5-R [2]; cAMP, CHO-K1 cells expressing hMC5-R, read-out: EC50 hMC5-R): 582 nM |
| CCCC[C@H](N)C(=O)N[C@H]1CSSC[C@@H](C(N)=O)NC(=O)CCCCNC(=O)[C@H](Cc2c[nH]c3ccccc23)NC(=O)[C@H](CCCNC(=N)N)NC(=O)[C@@H](Cc2ccccc2)NC(=O)[C@H](Cc2c[nH]cn2)NC1=O [Nle-c(Cys-His-D-Phe-Arg-Trp-Apn-Cys)-NH2] (H-[Nle]CH[dF]RW[Ava]C-NH2; disulfide 2-8) |  |  |  |  | EC50 (hMC1-R; [3]): 0.31 nM; EC50 (hMC3-R; [4]): 0.27 nM; EC50 (hMC4-R; [5]): 0.018 nM; EC50 (hMC5-R [2]; [6]): 3.1 nM |
| CC(=O)N[C@H]1CSSC[C@@H](C(=O)N2CCC[C@H]2C(=O)N2CCC[C@H]2C(=O)N[C@@H](CCCCN)C(=O)N[C@@H](CC(=O)O)C(=O)NCCC(=O)N[C@@H](Cc2ccc(O)cc2)C(=O)NCC(=O)N[C@@H](CCCNC(=N)N)C(=O)N[C@@H](CCCNC(=N)N)C(=O)N[C@@H](CCCNC(=N)N)C(=O)N[C@@H](CCCNC(=N)N)C(=O)N[C@@H](CCCNC(=N)N)C(=O)N[C@@H](CCC(N)=O)C(=O)N[C@@H](CCCNC(=N)N)C(=O)N[C@@H](CCCNC(=N)N)C(=O)N[C@@H](CCCNC(=N)N)C(N)=O)NC(=O)[C@H](C)NC(=O)[C@H](Cc2csc3ccccc23)NC(=O)[C@H](CCCNC(=N)N)NC(=O)[C@@H](Cc2ccc3ccccc3c2)NC(=O)[C@H](Cc2c[nH]cn2)NC(=O)[C@H](CCC(=O)O)NC1=O (Ac-CEH[d2Nal]R[Bta]ACPPKD[βAla]YGRRRRRQRRR-NH2; disulfide 1-8) | 114 | 44.6 | 28.4 | 879 |  |
| CC(=O)N[C@@H](CCCNC(=N)N)C(=O)N[C@H]1CSSC(C)(C)[C@@H](C(N)=O)NC(=O)[C@H](Cc2c[nH]c3ccccc23)NC(=O)[C@H](CCCNC(=N)N)NC(=O)[C@@H](Cc2ccccc2)NC(=O)[C@H](Cc2c[nH]cn2)NC(=O)[C@@H](C)NC1=O [Ac-Arg-c(Cys-D-Ala-His-D-Phe-Arg-Trp-Pen)-NH2] | 48.3 |  |  | 10000 | EC50 (hMC3-R): 13.3 nM; EC50 (hMC4-R): 0.79 nM |
| CC(=O)N[C@H]1CSSC[C@@H](C(N)=O)NC(=O)[C@H](C)NC(=O)[C@H](Cc2c[nH]c3ccccc23)NC(=O)[C@H](CCCNC(=N)N)NC(=O)[C@@H](Cc2ccccc2)NC(=O)[C@H](Cc2c[nH]cn2)NC(=O)[C@@H](C)NC1=O [Ac-c(Cys-D-Ala-His-D-Phe-Arg-Trp-Ala-Cys)-NH2] (Ac-C[dA]H[dF]RWAC-NH2; disulfide 1-8 (inferred)) |  |  |  |  | Ki (hMC5-R [1]; Table 5, read-out: Ki hMC5-R): > 10000 nM |
| CC(=O)N[C@H]1CSSC[C@@H](C(=O)N2CCC[C@H]2C(=O)N2CCC[C@H]2C(=O)N[C@@H](CCCCN)C(=O)N[C@@H](CC(=O)O)C(=O)NCCC(=O)NCC(=O)N[C@@H](CCCNC(=N)N)C(=O)N[C@@H](CCCNC(=N)N)C(=O)N[C@@H](CCCCN)C(=O)N[C@@H](CCCNC(=N)N)C(=O)N[C@@H](CCCNC(=N)N)C(=O)N[C@@H](CCC(N)=O)C(=O)N[C@@H](CCCNC(=N)N)C(=O)N[C@@H](CCCNC(=N)N)C(=O)N[C@@H](CCCNC(=N)N)C(N)=O)NC(=O)[C@H](C)NC(=O)[C@H](Cc2csc3ccccc23)NC(=O)[C@H](CCCNC(=N)N)NC(=O)[C@@H](Cc2ccc3ccccc3c2)NC(=O)[C@H](Cc2c[nH]cn2)NC(=O)[C@H](CCC(=O)O)NC1=O | 33.8 | 93.6 | 4.42 | 89.5 |  |
| CCCC[C@@H]1NC(=O)N(CC(=O)N[C@H]2CSSC(C)(C)[C@@H](C(N)=O)NC(=O)[C@H](Cc3c[nH]c4ccccc34)NC(=O)[C@H](CCCNC(=N)N)NC(=O)[C@@H](Cc3ccccc3)NC(=O)[C@H](Cc3cnc[nH]3)NC(=O)[C@@H](C)NC2=O)C1=O [Hydantoin(C(O)-(Nle-Gly))-c(Cys-D-Ala-His-D-Phe-Arg-Trp-Pen)-NH2] | 17 |  |  | 352 | EC50 (hMC3-R): 21.5 nM; EC50 (hMC4-R): 0.584 nM |
| CC(=O)N[C@@H](CCC1CCCCC1)C(=O)N[C@H]1CC(=O)NCCCC[C@@H](C(N)=O)NC(=O)CCCNC(=O)[C@H](Cc2c[nH]c3ccccc23)NC(=O)[C@H](CCCNC(=N)N)NC(=O)[C@@H](Cc2ccccc2)NC(=O)[C@H](Cc2c[nH]cn2)NC1=O [Ac-hCha-c(Asp-His-D-Phe-Arg-Trp-Gaba-Lys)-NH2] |  |  |  |  | EC50 (hMC1-R; [3]): 2.27 nM; EC50 (hMC3-R; [4]): 3.32 nM; EC50 (hMC4-R; [5]): 7.24 nM; EC50 (hMC5-R [2]; [6]): 415 nM |
| CC(=O)N[C@@H](CCCNC(=N)N)C(=O)N[C@H]1CSSC[C@@H](C(N)=O)NC(=O)[C@H](Cc2c[nH]c3ccccc23)NC(=O)[C@H](CCCNC(=N)N)NC(=O)[C@@H](Cc2ccc3ccccc3c2)NC(=O)[C@H](Cc2c[nH]cn2)NC(=O)[C@@H](C)NC1=O [Ac-Arg-c(Cys-D-Ala-His-D-2-Nal-Arg-Trp-Cys)-NH2] | 193 | 5.72 | 1.58 | 1110 |  |
| N=C(N)NCCC[C@@H]1NC(=O)[C@@H](Cc2ccccc2)NC(=O)[C@H](Cc2c[nH]cn2)NC(=O)[C@H](CCC(=O)O)NC(=O)[C@@H](NC(=O)CN2C(=O)N[C@@H](CCCNC(=N)N)C2=O)CSSC[C@@H](C(N)=O)NC(=O)[C@H](Cc2c[nH]c3ccccc23)NC1=O [Hydantoin(C(O)-(Arg-Gly))-c(Cys-Glu-His-D-Phe-Arg-Trp-Cys)-NH2] |  |  |  |  | EC50 (hMC1-R; Table 11, read-out: EC50 hMC1): 8.83 nM; EC50 (hMC3-R; Table 11, read-out: EC50 hMC3): 7.86 nM; EC50 (hMC4-R; Table 11, read-out: EC50 hMC4): 0.0979 nM; EC50 (hMC5-R [2]; Table 11, read-out: EC50 hMC5): 4010 nM |

— US20120135923A1, “Use of Melanocortins to Treat Dyslipidemia” (IPSEN PHARMA, S.A.S., priority 2009, published 2012)
